Source: PubChem BioAssay AID330 (DTP/NCI, 2004)
Several values for one entry are separate records, joined by “and”; a condition that tells them apart may be missing. Equal values may be shown once. Inconclusive results and toxic doses are left out. The calls were made as follows: active = survival T/C of 150% or more; inactive = T/C below 125% in these data.

Tested on: P388 leukemia ip, CD2F1 mice, survival T/C
Test: NCI In Vivo Anticancer Drug Screen. Data for tumor model P388 Leukemia (intraperitoneal) in CD2F1 (CDF1) mice
Conditions: endpoint: median survival time, higher = longer survival
How it was run: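 Mice carrying the transplanted tumor received test compound or vehicle. Survival was recorded in each group, and the value is the treated-group measurement divided by that of the vehicle-treated control group.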

[1] = dose: 50.0 mg/kg/injection, schedule: Q01DX009 (ip), vehicle: saline
[2] = dose: 100.0 mg/kg/injection, schedule: Q01DX009 (ip), vehicle: saline
[3] = dose: 200.0 mg/kg/injection, schedule: Q01DX009 (ip), vehicle: saline
[4] = dose: 50.0 mg/kg/injection, schedule: Q01DX005 (ip), vehicle: Klucel (hydroxypropylcellulose) (HPC)
[5] = dose: 200.0 mg/kg/injection, schedule: Q01DX005 (ip), vehicle: Klucel (hydroxypropylcellulose) (HPC)

Measured: T/C

Cc1ccc(/C2=C(\c3ccc(C)cc3)N(c3ccccc3)CCCCN2c2ccccc2)cc1
inactive: dose: 100.0 mg/kg/injection, schedule: Q04DX002 (ip), vehicle: Klucel (hydroxypropylcellulose) (HPC) 99 % of control | dose: 200.0 mg/kg/injection, schedule: Q04DX002 (ip), vehicle: Klucel (hydroxypropylcellulose) (HPC) 99 % of control | dose: 400.0 mg/kg/injection, schedule: Q04DX002 (ip), vehicle: Klucel (hydroxypropylcellulose) (HPC) 99 % of control

C/C(N=NC(=S)N1CCC(C)CC1)=C1\C=CC=CN1O
inactive: dose: 50.0 mg/kg/injection, schedule: Q01DX005 (ip), vehicle: saline with Tween-80 103 % of control | dose: 100.0 mg/kg/injection, schedule: Q01DX005 (ip), vehicle: saline with Tween-80 103 % of control | dose: 200.0 mg/kg/injection, schedule: Q01DX005 (ip), vehicle: saline with Tween-80 108 % of control

O=C/C=C/C=C/C=C/c1ccccc1
inactive: dose: 60.0 mg/kg/injection, schedule: Q01DX005 (ip), vehicle: distilled water + alcohol 100 % of control | dose: 120.0 mg/kg/injection, schedule: Q01DX005 (ip), vehicle: distilled water + alcohol 100 % of control | dose: 240.0 mg/kg/injection, schedule: Q01DX005 (ip), vehicle: distilled water + alcohol 96 % of control

CC(C)(C)OC(=O)N1CC(O)CC1C(=O)O (centres undefined)
inactive: dose: 50.0 mg/kg/injection, schedule: Q01DX005 (ip), vehicle: saline 91 % of control | dose: 100.0 mg/kg/injection, schedule: Q01DX005 (ip), vehicle: saline 91 % of control

Nc1nc2c(nc(OCc3ccccc3)n2C2OC(CO)C(O)C2O)c(=O)n1N (centres undefined)
inactive: dose: 60.0 mg/kg/injection, schedule: Q01DX005 (ip), vehicle: saline with Tween-80 104 % of control | dose: 120.0 mg/kg/injection, schedule: Q01DX005 (ip), vehicle: saline with Tween-80 96 % of control | dose: 240.0 mg/kg/injection, schedule: Q01DX005 (ip), vehicle: saline with Tween-80 100 % of control

CP1(=S)CCC2=C1c1ccc(O)cc1CC2 (centres undefined)
inactive: [1] 100 % of control | [2] 100 % of control | [3] 101 % of control

CCCCOC(=O)NP1(=O)NCc2ccccc2CN1
inactive: dose: 12.5 mg/kg/injection, schedule: Q01DX005 (ip), vehicle: Klucel (hydroxypropylcellulose) (HPC) 93 % of control | dose: 25.0 mg/kg/injection, schedule: Q01DX005 (ip), vehicle: Klucel (hydroxypropylcellulose) (HPC) 87 % of control | [4] 91 % of control and 93 % of control | [5] 91 % of control

COc1ccc(N=NNc2ccc(OC)cc2)cc1
inactive: dose: 6.25 mg/kg/injection, schedule: Q01DX009 (ip), vehicle: saline with Tween-80 104 % of control | dose: 6.25 mg/kg/injection, schedule: Q04DX003 (ip), vehicle: saline with Tween-80 95 % of control | dose: 12.5 mg/kg/injection, schedule: Q01DX009 (ip), vehicle: saline with Tween-80 104 % of control | dose: 12.5 mg/kg/injection, schedule: Q04DX003 (ip), vehicle: saline with Tween-80 108 % of control | dose: 25.0 mg/kg/injection, schedule: Q04DX003 (ip), vehicle: saline with Tween-80 116 % of control

CCCCC(NC(=O)OCc1ccccc1)C(=O)NC(CC(C)C)C(=O)O (centres undefined)
inactive: [4] 100 % of control | dose: 100.0 mg/kg/injection, schedule: Q01DX005 (ip), vehicle: Klucel (hydroxypropylcellulose) (HPC) 100 % of control | [5] 92 % of control

CC12OCCC1C(c1ccccc1[N+](=O)[O-])Nc1ccccc12 (centres undefined)
inactive: dose: 100.0 mg/kg/injection, schedule: Q01DX001 (ip), vehicle: saline with Tween-80 114 % of control | dose: 200.0 mg/kg/injection, schedule: Q01DX001 (ip), vehicle: saline with Tween-80 97 % of control | dose: 400.0 mg/kg/injection, schedule: Q01DX001 (ip), vehicle: saline with Tween-80 94 % of control

CN1C(=O)C23CCCN2C(=O)C1(C)SC(=O)S3 (centres undefined)
inactive: [1] 98 % of control | [2] 101 % of control | [3] 98 % of control

COc1ccc(C(C)c2cc3c(cc2OC)OCO3)cc1OC (centres undefined)
inactive: dose: 50.0 mg/kg/injection, schedule: Q01DX005 (ip), vehicle: distilled water + Tween-80 99 % of control | dose: 100.0 mg/kg/injection, schedule: Q01DX005 (ip), vehicle: distilled water + Tween-80 98 % of control | dose: 200.0 mg/kg/injection, schedule: Q01DX005 (ip), vehicle: distilled water + Tween-80 100 % of control

O=C(Cc1ccccn1)c1cccnc1
inactive: dose: 100.0 mg/kg/injection, schedule: Q04DX003 (ip), vehicle: saline 94 % of control | dose: 200.0 mg/kg/injection, schedule: Q04DX003 (ip), vehicle: saline 96 % of control | dose: 400.0 mg/kg/injection, schedule: Q04DX003 (ip), vehicle: saline 100 % of control

COC(=O)C(C)NC(=O)Cc1ccccc1 (centres undefined)
inactive: dose: 100.0 mg/kg/injection, schedule: Q04DX003 (ip), vehicle: saline with Tween-80 104 % of control | dose: 200.0 mg/kg/injection, schedule: Q04DX003 (ip), vehicle: saline with Tween-80 100 % of control | dose: 400.0 mg/kg/injection, schedule: Q04DX003 (ip), vehicle: saline with Tween-80 90 % of control
